“And” between values parts separate entries of the source, which are not always exact repeats. Equal values may be shown once. Read-outs that look alike come from different tables or passages of the source.
Key:
P. aeruginosa 101243 = test: Checkerboard assay; format: cell-based, Pseudomonas aeruginosa; settings: one value per checkerboard plate; for MIC: Pseudomonas aeruginosa, 101243, agent alone
Protocol: (§1) The adjuvant properties of the guanidinylated polymyxins were evaluated using the checkerboard assay as previously described. The bacterial solution was prepared as described in the antimicrobial susceptibility assay. The antibiotic of interest and the adjuvant were serially diluted two-fold along the x- and y-axis on a 96-well plate, respectively, resulting in varying concentrations of both agents in each well. Equal volumes of bacterial solution were added to the designated wells. The well consisting of bacterial solution served as the positive control, while the wells containing only media served as the negative control. The plate was then incubated at 37 °C for 18 h. After incubation, an Emax Plus microplate reader (Molecular Devices, Union City, CA, USA) was used to measure the OD at a wavelength of 590 nm to confirm the turbidity. The fractional inhibitory concentration (FIC) index was then determined to establish the relationship between the antibiotic and adjuvant. The FIC index corresponds to the sum of the FICs of the antibiotic and adjuvant. The FIC of each agent is calculated by dividing its MIC when it is used in combination by its MIC when used alone. FIC indices ≤0.5, 0.5 < x ≤ 4 and >4 indicate synergy, additivity and antagonism, respectively.

[1] = system: P. aeruginosa P264-104354; test: Checkerboard assay; format: cell-based, Pseudomonas aeruginosa; settings: one value per checkerboard plate
Protocol: as §1

[2] = system: P. aeruginosa P262-101856; test: Checkerboard assay; format: cell-based, Pseudomonas aeruginosa; settings: one value per checkerboard plate; for MIC: Pseudomonas aeruginosa, P262101856, agent alone
Protocol: as §1

P. aeruginosa P259-96918 = test: Checkerboard assay; format: cell-based, Pseudomonas aeruginosa; settings: Pseudomonas aeruginosa, P25996918; agent alone, one value per checkerboard plate
Protocol: as §1

E. coli 107115 = test: microbe, parasite or virus in culture; format: cell-based, Escherichia coli; settings: Escherichia coli, 107115, agent alone, one value per checkerboard plate
Protocol: as §1

P. aeruginosa PA 107092 [3] = test: Time-kill assay; format: cell-based, Pseudomonas aeruginosa; settings: monotherapy, 8 μg/mL
Protocol: To study the time-dependent killing effects of the drug combinations, the time-kill kinetics were assessed. The time-kill assay was performed following the 8 μM (2 μg/mL) concentration of avibactam used in the checkerboard assay. […] This concentration also corresponds to the susceptibility breakpoint of both β-lactams.
For the preparation of the bacterial solution, an overnight grown culture was diluted in 0.85% saline solution and adjusted to 0.5 McFarland turbidity. […] The culture tubes were incubated at 37 °C, shaking at 250 rpm. At the appointed time intervals, a 100-μL aliquot was taken from each tube, serially diluted in phosphate-buffered saline (PBS) and plated on LB agar plates. The plates were incubated at 37 °C, and bacterial colonies were counted after 18 h. The bactericidal or bacteriostatic activity is determined based on the decrease in CFU over the time period. Bactericidal activity corresponds to ≥3 log10 reduction in CFU/mL, while bacteriostatic activity corresponds to <3 log10 reduction in CFU/mL.

P. aeruginosa PA 88949 = format: cell-based, Pseudomonas aeruginosa; settings: one value per checkerboard plate
Protocol: as §1

P. aeruginosa PA 107092 [4] = format: cell-based, Pseudomonas aeruginosa
Protocol: as §1

P. aeruginosa PA 109084 = format: cell-based, Pseudomonas aeruginosa
Protocol: as §1

P. aeruginosa PA 86052 = format: cell-based, Pseudomonas aeruginosa; settings: one value per checkerboard plate
Protocol: as §1

P. aeruginosa 114228 = test: microbe, parasite or virus in culture; format: cell-based, Pseudomonas aeruginosa; settings: one value per checkerboard plate; for MIC: Pseudomonas aeruginosa, 114228, agent alone
Protocol: as §1

P. aeruginosa PAO1 = test: microbe, parasite or virus in culture; format: cell-based, Pseudomonas aeruginosa
Protocol: as §1

E. coli ATCC 25922 = test: microbe, parasite or virus in culture; format: cell-based, Escherichia coli; set-up: key to FIC index antibiotic + GCol / FIC index antibiotic + GPMB: sum of FICs; ≤0.5 synergy, 0.5–4 additivity, >4 antagonism; settings: for MIC: Escherichia coli, ATCC25922, 18 h, agent alone, one value per checkerboard plate, read-out: MIC alone
Protocol: as §1

A. baumannii AB027 = test: microbe, parasite or virus in culture; format: cell-based, Acinetobacter baumannii; settings: one value per checkerboard plate; for MIC: Acinetobacter baumannii, AB027, agent alone
Protocol: as §1

A. baumannii 92247 = test: microbe, parasite or virus in culture; format: cell-based, Acinetobacter baumannii; settings: one value per checkerboard plate; for MIC: Acinetobacter baumannii, 92247, agent alone
Protocol: as §1

A. baumannii ATCC 17978 = test: microbe, parasite or virus in culture; format: cell-based, Acinetobacter baumannii; settings: for MIC: Acinetobacter baumannii, ATCC17978, 18 h, agent alone, one value per checkerboard plate, read-out: MIC alone
Protocol: as §1

A. baumannii AB031 = test: Checkerboard assay; format: cell-based, Acinetobacter baumannii; settings: Acinetobacter baumannii, AB031, agent alone, one value per checkerboard plate
Protocol: as §1

K. pneumoniae 113254 = test: Checkerboard assay; format: cell-based, Klebsiella pneumoniae; settings: Klebsiella pneumoniae, 113254, agent alone, one value per checkerboard plate
Protocol: as §1

K. pneumoniae 113250 = test: Checkerboard assay; format: cell-based, Klebsiella pneumoniae; settings: one value per checkerboard plate
Protocol: as §1

E. coli 94474 = test: Checkerboard assay; format: cell-based, Escherichia coli; settings: Escherichia coli, 94474, agent alone, one value per checkerboard plate
Protocol: as §1

E. coli 94393 = test: Checkerboard assay; format: cell-based, Escherichia coli; settings: Escherichia coli, 94393, agent alone, one value per checkerboard plate
Protocol: as §1

E. cloacae 121187 = test: microbe, parasite or virus in culture; format: cell-based, Enterobacter cloacae; settings: one value per checkerboard plate
Protocol: as §1

A. baumannii 110193 = test: microbe, parasite or virus in culture; format: cell-based, Acinetobacter baumannii; settings: one value per checkerboard plate
Protocol: as §1

[5] = one value per checkerboard plate

MIC (P. aeruginosa 101243) [µg/mL]	MIC [2] [µg/mL]	MIC (E. coli 107115) [µg/mL]	MIC (P. aeruginosa 114228) [µg/mL]	Absolute MIC of antibiotic at 4 μg/mL GCol (P. aeruginosa PAO1) [µg/mL]	Absolute MIC of antibiotic at 4 μg/mL GPMB (P. aeruginosa PAO1) [µg/mL]	Absolute MIC of antibiotic at 2 μg/mL GCol (E. coli ATCC 25922) [µg/mL]	MIC (E. coli ATCC 25922) [µg/mL]	MIC (A. baumannii AB027) [µg/mL]	MIC (A. baumannii 92247) [µg/mL]	Absolute MIC of antibiotic at 2 μg/mL GCol (A. baumannii ATCC 17978) [µg/mL]	Absolute MIC of antibiotic at 2 μg/mL GPMB (A. baumannii ATCC 17978) [µg/mL]	MIC (A. baumannii ATCC 17978) [µg/mL]	MIC (A. baumannii AB031) [µg/mL]	SMILES	further results
16	32	1020	16	0.5	0.25	0.031	0.25	1020	128	64	32	64	64	C[C@H]1[C@H](NC(=O)/C(=N\OC(C)(C)C(=O)O)c2csc(N)n2)C(=O)N1S(=O)(=O)O [Aztreonam]	MIC alone (P. aeruginosa 101243; agent alone): 32 µg/mL; MIC ([1]; Pseudomonas aeruginosa, P264104354, agent alone): 64 µg/mL; MIC alone ([1]; agent alone): 32 µg/mL; MIC alone ([2]; agent alone): 64 µg/mL; MIC (P. aeruginosa P259-96918): 32 µg/mL; log10 increase (bacterial growth) over 24 h (P. aeruginosa PA 107092 [3]): 2 to 3 log10; MIC antibiotic alone (P. aeruginosa PA 88949): 16 µg/mL; MIC antibiotic alone (P. aeruginosa PA 107092 [4]; [5]): 32 µg/mL and 64 µg/mL; MIC antibiotic alone (P. aeruginosa PA 107092 [4]; plates with 8 μM avibactam): 16 µg/mL and 8 µg/mL; MIC antibiotic alone (P. aeruginosa PA 109084; [5]): 64 µg/mL; MIC antibiotic alone (P. aeruginosa PA 109084; plates with 8 μM avibactam): 8 µg/mL; MIC antibiotic alone (P. aeruginosa PA 86052): 64 µg/mL and 32 µg/mL; MIC alone (P. aeruginosa 114228; agent alone): 8 µg/mL; MIC (P. aeruginosa PAO1; Pseudomonas aeruginosa, PAO1, 18 h, agent alone, one value per checkerboard plate, read-out: MIC alone): 4 µg/mL; Absolute MIC of antibiotic at 2 μg/mL GPMB (E. coli ATCC 25922): 0.016 µg/mL; FIC index antibiotic + GCol (E. coli ATCC 25922): 0.188; MIC alone (A. baumannii 92247; agent alone): 256 µg/mL
1020	2050	2050	64	16	2	0.25	32	8	8	32	0.5	32	16	CC[C@H]1OC(=O)[C@H](C)[C@@H](O[C@H]2C[C@@](C)(OC)[C@@H](O)[C@H](C)O2)[C@H](C)[C@@H](O[C@@H]2O[C@H](C)C[C@H](N(C)C)[C@H]2O)[C@](C)(O)C[C@@H](C)C(=O)[C@H](C)[C@@H](O)[C@]1(C)O [Erythromycin]	MIC (K. pneumoniae 113254): 64 µg/mL; MIC (K. pneumoniae 113250; Klebsiella pneumoniae, 113250, agent alone): 32 µg/mL; MIC alone (K. pneumoniae 113250; agent alone): 64 µg/mL; MIC (E. coli 94474): 64 µg/mL; MIC (E. coli 94393): 64 µg/mL; MIC (E. cloacae 121187; Enterobacter cloacae, 121187, agent alone): 1020 µg/mL; MIC alone (E. cloacae 121187; agent alone): 512 µg/mL; MIC alone (A. baumannii AB027; agent alone): 4 µg/mL; MIC (A. baumannii 110193; Acinetobacter baumannii, 110193, agent alone): 2 µg/mL; MIC alone (A. baumannii 110193; agent alone): 4 µg/mL

From PMC9598282 (Antibiotics, 2022)
